# Experimental data reported in patent US11767322B2 (BRISTOL-MYERS SQUIBB COMPANY, priority 2020, dated 2023).
# Like-named read-outs stand apart in the source and are kept apart here.
# Legend:
# [1] = biological target: GST-tagged PIK3Cδ in complex with PIK3R1 (Homo sapiens, UniProt O00329); assay: PI3Kδ HTRF binding assay; conditions: HTRF probe displacement, 1 h at rt; read-out: PIK3CD IC50
# [2] = biological target: T1, His-GST-TVMV-hRIPK1(1-324) (Homo sapiens, UniProt Q13546); assay: biochemical; type: binding
# T1 construct: The coding region of human RIPK1(1-324) flanked by NdeI site at 5′ end; made in house; host or cells: Spodoptera frugiperda Sf9 insect cells (baculovirus, Bac-to-Bac)
# T1 sequence (Q13546 1-324): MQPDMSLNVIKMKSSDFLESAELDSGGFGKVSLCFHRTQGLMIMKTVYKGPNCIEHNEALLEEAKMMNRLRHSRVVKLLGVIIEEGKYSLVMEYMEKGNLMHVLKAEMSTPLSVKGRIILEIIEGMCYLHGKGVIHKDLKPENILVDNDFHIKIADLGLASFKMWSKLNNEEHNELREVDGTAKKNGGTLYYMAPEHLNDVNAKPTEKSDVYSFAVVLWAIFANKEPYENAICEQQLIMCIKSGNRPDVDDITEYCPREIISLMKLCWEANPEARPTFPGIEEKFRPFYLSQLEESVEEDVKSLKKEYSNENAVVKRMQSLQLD
# [3] = tested on: MLKL phosphorylation in HT29-L23 human colorectal adenocarcinoma cells; assay: MLKL phosphorylation high-content assay; type: cell-based
# [4] = HTRF probe displacement, 1 h at rt, read-out: RIPK1 IC50
# [5] = Homo sapiens, 6 h, read-out: pMLKL IC50, HT29-L23 cells, necroptosis induced with TNFα, SMAC mimetic and Z-VAD, 6 h, maximal inhibition defined by Nec1s
# GST-tagged PIK3Cδ in complex with PIK3R1, sequence (O00329 whole entry): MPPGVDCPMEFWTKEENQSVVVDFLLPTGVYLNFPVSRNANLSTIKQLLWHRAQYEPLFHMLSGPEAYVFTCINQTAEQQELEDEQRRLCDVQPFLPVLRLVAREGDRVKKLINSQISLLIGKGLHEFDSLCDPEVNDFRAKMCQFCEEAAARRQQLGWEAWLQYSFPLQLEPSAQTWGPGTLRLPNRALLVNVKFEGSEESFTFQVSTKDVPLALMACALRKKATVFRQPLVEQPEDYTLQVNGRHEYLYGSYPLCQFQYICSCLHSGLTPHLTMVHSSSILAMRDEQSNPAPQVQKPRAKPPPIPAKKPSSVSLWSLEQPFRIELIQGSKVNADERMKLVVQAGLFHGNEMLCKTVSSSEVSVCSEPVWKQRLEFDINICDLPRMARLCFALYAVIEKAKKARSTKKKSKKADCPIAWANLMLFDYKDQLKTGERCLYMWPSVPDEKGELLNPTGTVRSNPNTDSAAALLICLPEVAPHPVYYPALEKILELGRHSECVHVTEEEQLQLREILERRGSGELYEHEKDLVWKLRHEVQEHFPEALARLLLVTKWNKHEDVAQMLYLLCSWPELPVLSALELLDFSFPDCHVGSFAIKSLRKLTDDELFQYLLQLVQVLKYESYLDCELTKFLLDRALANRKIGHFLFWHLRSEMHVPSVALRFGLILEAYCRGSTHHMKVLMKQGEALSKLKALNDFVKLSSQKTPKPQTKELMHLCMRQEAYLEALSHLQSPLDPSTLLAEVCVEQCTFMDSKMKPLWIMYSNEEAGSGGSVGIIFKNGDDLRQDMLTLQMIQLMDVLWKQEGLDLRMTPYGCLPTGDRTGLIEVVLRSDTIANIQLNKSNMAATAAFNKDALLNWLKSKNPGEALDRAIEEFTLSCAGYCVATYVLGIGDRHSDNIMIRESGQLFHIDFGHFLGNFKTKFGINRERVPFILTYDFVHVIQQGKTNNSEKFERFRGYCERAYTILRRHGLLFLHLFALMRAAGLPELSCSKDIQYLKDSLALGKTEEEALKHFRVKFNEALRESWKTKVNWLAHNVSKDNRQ
# GST-tagged PIK3Cδ in complex with PIK3R1, sequence (P27986 whole entry partner): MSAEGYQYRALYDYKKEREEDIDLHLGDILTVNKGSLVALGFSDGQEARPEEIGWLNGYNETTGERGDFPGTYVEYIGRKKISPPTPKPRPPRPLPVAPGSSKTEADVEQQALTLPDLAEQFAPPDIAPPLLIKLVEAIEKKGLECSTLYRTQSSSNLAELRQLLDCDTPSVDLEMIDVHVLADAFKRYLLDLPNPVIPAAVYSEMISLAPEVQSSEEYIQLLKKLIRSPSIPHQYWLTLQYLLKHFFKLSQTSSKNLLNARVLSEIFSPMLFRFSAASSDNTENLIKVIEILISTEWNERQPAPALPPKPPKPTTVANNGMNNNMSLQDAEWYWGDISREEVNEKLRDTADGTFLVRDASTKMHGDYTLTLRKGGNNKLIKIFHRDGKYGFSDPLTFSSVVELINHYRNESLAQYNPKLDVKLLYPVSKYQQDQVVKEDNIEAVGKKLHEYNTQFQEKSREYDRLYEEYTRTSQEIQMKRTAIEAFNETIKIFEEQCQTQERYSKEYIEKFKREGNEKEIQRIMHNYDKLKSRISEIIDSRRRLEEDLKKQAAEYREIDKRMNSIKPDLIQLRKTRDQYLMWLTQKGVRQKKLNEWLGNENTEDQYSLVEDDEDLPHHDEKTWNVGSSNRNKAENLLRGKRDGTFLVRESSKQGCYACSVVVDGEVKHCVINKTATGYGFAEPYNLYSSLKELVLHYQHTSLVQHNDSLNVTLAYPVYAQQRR
SMILES,IC50 [1],"IC50 [2, 4]","IC50 ([2]; Table 22, compounds of the present invention, read-out: RPIK1 IC50)","IC50 [3, 5]","IC50 ([3]; Homo sapiens, read-out: pMLKL IC50, Table 22, compounds of the present invention)","IC50 ([3]; read-out: pMLKL IC50, HT29-L23 cells, necroptosis induced with TNFα, SMAC mimetic and Z-VAD, 6 h, maximal inhibition defined by Nec1s)"
"Cc1cc(F)c(-c2ccn3nc(N)nc3c2)cc1C(=O)NCCC(O)c1ccc(F)cc1 (single isomer, unassigned) [Example 9, 5-(2-amino-[1,2,4]triazolo[1,5-a]pyridin-7-yl)-4-fluoro-N-(3-(4-fluorophenyl)-3-hydroxypropyl)-2-methylbenzamide]",> 15000 nM,6.2 nM,6.2 nM,2.4 nM,2.4 nM,
"Cc1ccc(-c2ccn3nc(N)nc3c2)c(F)c1C(=O)NCCC(O)c1ccc(Cl)c(Cl)c1 (single isomer, unassigned) [Example 34, 3-(2-amino-[1,2,4]triazolo[1,5-a]pyridin-7-yl)-N-(3-(3,4-dichlorophenyl)-3-hydroxypropyl)-2-fluoro-6-methylbenzamide]",> 15000 nM,0.8 nM,,,,1 nM
"Nc1nc2cc(-c3ccc(Cl)c(C(=O)NC[C@@H](F)[C@H](O)c4ccc(F)cc4)c3F)ccn2n1 (single isomer, unassigned) [Example 297]",> 15000 nM,3.7 nM,,1.6 nM,,
